Assay results taken from ChEMBL document CHEMBL1149060, “Structure of malhamensilipin A, an inhibitor of protein tyrosine kinase, from the cultured chrysophyte Poterioochromonas malhamensis” (J Nat Prod, 1994).

Assay: Inhibition of Rous sarcoma virus pp60v-src

For `CCCCCCCCC(Cl)C(Cl)C(O)C(Cl)C(Cl)C(Cl)CCCCCCCC/C(Cl)=C\OS(=O)(=O)O` (stereo unspecified) [MALHAMENSILIPIN A], the IC50 was 35 µM.
